Columns and labels:
5α-reductase type 1 = molecular target: T1, 5α-reductase type 1 (Homo sapiens, UniProt P18405); type: cell-based
T1 sequence (P18405 1-259): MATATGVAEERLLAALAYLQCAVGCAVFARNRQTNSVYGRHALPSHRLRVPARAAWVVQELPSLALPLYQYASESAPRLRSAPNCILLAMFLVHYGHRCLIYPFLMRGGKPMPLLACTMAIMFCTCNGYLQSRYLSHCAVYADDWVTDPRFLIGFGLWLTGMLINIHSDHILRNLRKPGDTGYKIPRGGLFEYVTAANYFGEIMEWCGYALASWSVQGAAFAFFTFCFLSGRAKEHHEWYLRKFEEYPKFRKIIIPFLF

5α-reductase type 2 = molecular target: T2, 5α-reductase type 2 (Homo sapiens, UniProt P31213); type: cell-based
T2 sequence (P31213 1-254): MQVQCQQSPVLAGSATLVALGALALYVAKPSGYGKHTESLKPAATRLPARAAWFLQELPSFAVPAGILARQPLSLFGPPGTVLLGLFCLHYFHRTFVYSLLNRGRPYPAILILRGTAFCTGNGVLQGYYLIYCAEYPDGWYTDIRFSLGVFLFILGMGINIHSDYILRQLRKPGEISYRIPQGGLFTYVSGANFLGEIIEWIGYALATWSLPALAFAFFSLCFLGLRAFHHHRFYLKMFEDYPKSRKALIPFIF

SMILES: CC(C)(C)NC(=O)[C@H]1CC[C@H]2[C@@H]3CC[C@H]4NC(=O)C=C[C@]4(C)[C@H]3CC[C@]12C [finasteride]
- IC50 (5α-reductase type 1): ~800 nM
- IC50 (5α-reductase type 2): ~100 nM

Reference: PMC3459575 (Clinical Interventions in Aging, 2012)
